The text below walks through data of patent US20230184759A1, “IN VITRO METHOD FOR DETECTION OF INFECTIONS CAUSED BY PSEUDOMONAS AERUGINOSA” (CONSEJO SUPERIOR DE INVESTIGACIONES CIENTIFICAS (CSIC), priority 2020, published 2023).

Holding throughout (format): binding, rabbit
Test [1] relates to As385. Description: Competitive indirect ELISA for detection of PQS (As385, coating antigen I-5). To be noted: for C.R. (Cross Reactivity): As385 (PQS) assay, relative to PQS. On the procedure: (§1) The competitive assay was carried out in a 96 well Maxisorp flat-bottom plates, coated using 100 μL of a BSA conjugate solution in coating buffer pH=9.6. Then, plates were covered with adhesive plate sealer and incubated overnight at 4° C. The day after, plates were washed with PBST (4×300 μL) using the platewasher Biotek ELx405 HT. Sequentially, 50 μL of the corresponding sample solution, containing the analyte HHQ, PQS or HQNO (2 μM to 0.13 nM) or MH medium were added, followed by 50 μL addition of a fixed As dilution and left without agitation 30 min at RT. After another washing step, a 1/6000 dilution of goat AntiRabbit IgG-HRP in PBST was added and incubated 30 min at RT. After a final washing, 100 μL of a substrate solution was added and left 30 min at RT in the dark. Once the time was consumed, the enzymatic reaction was stopped by adding 50 μl of H2SO4 4M solution and the absorbances read at 450 nm. Absorbance data were plotted and analyzed using GraphPad software. The standard calibration curve was fitted to a four-parameter equation according to the following formula: […], where A is the maximum absorbance, B is the minimum absorbance, C is the concentration producing 50% of the maximal absorbance, and D is the slope at the inflection point of the sigmoid curve. Unless otherwise indicated, the data presented correspond to the average of at least two well replicates.
(§2) Regarding specificity studies, it was followed the experimental procedure for indirect competitive ELISA described above. It was assessed the avidity of As versus other quinolone effector molecules of the pqs system from P. aeruginosa. Each assay was run using HHQ, PQS and HQNO as analyte. Cross reactivity was calculated through the equation: […].
(In general: An ELISA detects its analyte on a solid surface through an enzyme-linked reagent.)

Test [2] relates to As389. Description: Competitive indirect ELISA for detection of HQNO (As389, coating antigen I-5). The note with it: for C.R. (Cross Reactivity): As389 (HQNO) assay, relative to HQNO. On the procedure:
as §1, §2

In test [3] the test system is As382. In words: Competitive indirect ELISA for detection of HHQ (As382, coating antigen I-7). The note with it: for C.R. (Cross Reactivity): As382 (HHQ) assay, relative to HHQ. On the procedure:
as §1, §2

The mark [4] stands for this setting: cross reactivity study, As385 (PQS) assay conditions.
[5] abbreviates: cross reactivity study, As389 (HQNO) assay conditions.
Setting [6] is: cross reactivity study, As382 (HHQ) assay conditions.

As a reminder, the IC50 is the concentration needed to halve the response being measured. `CCCCCCCc1cc(=O)c2ccccc2[nH]1` [HHQ, 2-heptyl-4-quinolone]: the “C.R. (Cross Reactivity)” value in test [1] worked out at 13.31%; in test [2] it was 36.24%; in test [3] it was 100.00%. Further, the IC50 in test [1] (setting [4]) was found to be 27.2 nM; in test [2] (setting [5]) it was 26.4 nM; in test [3] (MH diluted 1/5, As382 dil. 1/64000, I-7 0.156 μg/mL), 2.85 ± 0.296 nM; in test [3] (PBST, As382 dil. 1/32000, I-7 0.313 μg/mL), 4.59 ± 0.287 nM; in test [3] (setting [6]), 2.67 nM.
As to `CCCCCCCc1cc(=O)c2ccccc2n1O` [HQNO, 2-heptyl-4-quinolone N-oxide], the “C.R. (Cross Reactivity)” value in test [1] is 1.53%; in test [2] it was 100.00%; in test [3], 3.11%. Moreover, the IC50 was 236 nM in test [1] (setting [4]); 2.71 ± 0.035 nM in test [2] (MH diluted 1/5, As389 dil. 1/16000, I-5 0.250 μg/mL); 4.2 ± 0.858 nM in test [2] (PBS at pH = 6.5, As389 dil. 1, I-5 0.250 μg/mL); 9.55 nM in test [2] (setting [5]); 86 nM in test [3] (setting [6]).
Regarding `CCCCCCCc1[nH]c2ccccc2c(=O)c1O` [PQS, 2-heptyl-3-hydroxy-4-quinolone], the “C.R. (Cross Reactivity)” value turned out to be 100.00% in test [1], 5.41% in test [2] and 7.16% in test [3]. In addition, the IC50 in test [1] (MH diluted 1/10, As385 dil. 1/64000, I-5 0.039 μg/mL) turned out to be 6.05 ± 0.155 nM; in test [1] (PBS + 0.01% Tween + 0.1 mM EDTA, As385 dil. 1/48000, I-5 0.039 μg/mL) it was 3.87 ± 0.529 nM; in test [1] (setting [4]) it was 3.62 nM; in test [2] (setting [5]) it was 177 nM; in test [3] (setting [6]), 37.3 nM.
